BindingDB's records for doi:10.7270/Q2736PBV (Broad Institute, 2009)
pEC50: −log10 of the molar value.

These compounds were tested against T1, Streptokinase A (Streptococcus pyogenes serotype M1, UniProt P10520) (assay: viability-normalized secreted streptokinase activity reduction – plasminogen activation absorbance, OD405, dose response (AID 1914)).
T1 sequence (P10520 whole entry): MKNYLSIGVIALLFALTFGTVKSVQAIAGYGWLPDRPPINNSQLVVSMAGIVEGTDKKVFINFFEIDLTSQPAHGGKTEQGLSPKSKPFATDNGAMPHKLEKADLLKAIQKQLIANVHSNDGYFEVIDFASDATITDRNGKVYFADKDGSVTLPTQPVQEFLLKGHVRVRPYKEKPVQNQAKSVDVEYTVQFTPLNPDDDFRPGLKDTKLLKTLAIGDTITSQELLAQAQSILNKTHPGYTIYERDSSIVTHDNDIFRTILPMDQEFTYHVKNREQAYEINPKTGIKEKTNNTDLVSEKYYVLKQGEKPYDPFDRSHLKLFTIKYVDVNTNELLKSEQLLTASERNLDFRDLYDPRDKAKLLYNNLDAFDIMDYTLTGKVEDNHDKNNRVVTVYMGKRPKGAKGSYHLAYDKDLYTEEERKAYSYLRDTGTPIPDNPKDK

`N#Cc1c(-c2c(Cl)cccc2Cl)noc1CC=Nc1ccc(C(=O)O)cc1` [SMR000337673] was tested. Which pEC50 did it give?
Its pEC50 is < 3.82.

`Cc1cc(C)c2c(c1)C(=NNc1ccc(C(=O)O)cc1)C(O)=N2` [SMR000592331] was tested. Which pEC50 did it give?
The pEC50 was < 3.82.

How did the pEC50 turn out when `O=C1NC(=S)N(C2CCCCC2)C(=O)C1=CNNC(=O)c1ccccc1` [N'-[(E)-(1-cyclohexyl-4,6-dioxo-2-sulfanylidene-1,3-diazinan-5-ylidene)methyl]benzohydrazide] was run?
The pEC50 was < 3.82.

With `O=C1C([N+](=O)[O-])=CC(Cl)=CC1CN=Nc1ccccn1` (configuration not stated) [MLS000539830] as the compound, how does the pEC50 read?
Its pEC50 is 4.96.

`Cc1ccsc1C1CC(c2cccc(Br)c2)=Nc2ncnn21` (configuration not stated) [5-(3-bromophenyl)-7-(3-methylthien-2-yl)-4,7-dihydro[1,2,4]triazolo[1,5-a]pyrimidine] was tested. Which pEC50 did it give?
Its pEC50 is < 3.82.

`CC(N=Nc1nc2ccc(Cl)cc2o1)c1ccccc1` (configuration not stated) [6-chloranyl-N-(1-phenylethylideneamino)-1,3-benzoxazol-2-amine] was tested. Which pEC50 did it give?
The pEC50 was < 3.82.

How did the pEC50 turn out when `COc1ccc(C2=N/C(=C\c3c(C)[nH]c4ccccc34)C(=O)O2)cc1` [(4Z)-2-(4-methoxyphenyl)-4-[(2-methyl-1H-indol-3-yl)methylidene]-1,3-oxazol-5-one] was run?
The pEC50 was < 3.82.

`CCOC(=O)C1=C(Cc2ccc(CC)cc2)C(=O)c2ccccc2C1=O` [(2E,3Z)-2-[ethoxy(hydroxy)methylidene]-3-[(4-ethylphenyl)methylidene]naphthalene-1,4-dione] was tested. Which pEC50 did it give?
Its pEC50 is < 3.82.

How did the pEC50 turn out when `CC1CC(C)(C)N2C(=O)/C(=N\NC(N)=S)c3cccc1c32` (configuration not stated) [SMR000414933] was run?
Its pEC50 is < 3.82.

`COC1=CC(CN=Nc2nc3ccccc3s2)C=C([N+](=O)[O-])C1=O` (configuration not stated) [MLS000777866] was tested. Which pEC50 did it give?
Its pEC50 is < 3.82.

`Cc1ccc(SCC(=O)C(C#N)c2nc3ccccc3s2)cc1` (configuration not stated) [(2Z)-2-(3H-1,3-benzothiazol-2-ylidene)-3-keto-4-(p-tolylthio)butyronitrile] was tested. Which pEC50 did it give?
Its pEC50 is < 3.82.

`Oc1ccccc1CN=Nc1nc(O)c(Cc2ccc(F)cc2)s1` [5-[(4-fluorophenyl)methyl]-2-[2-[(E)-(6-oxidanylidenecyclohexa-2,4-dien-1-ylidene)methyl]hydrazinyl]-1,3-thiazol-4-one] was tested. Which pEC50 did it give?
The pEC50 was < 3.82.

`CCOc1ccc(CN=Nc2cc(N3CCOCC3)nc(C)n2)c(O)c1` [(6E)-3-ethoxy-6-[[2-(2-methyl-6-morpholin-4-yl-pyrimidin-4-yl)hydrazinyl]methylidene]cyclohexa-2,4-dien-1-one] was tested. Which pEC50 did it give?
The pEC50 was < 3.82.

How did the pEC50 turn out when `O=C(Nc1nnc(-c2ccc(Br)cc2)o1)c1cccc(-n2c(O)ccc2O)c1` [MLS001235111] was run?
Its pEC50 is < 3.82.

How did the pEC50 turn out when `CCN(CC)c1ccc(C=NC(C#N)C(=N)C#N)cc1` (configuration not stated) [SMR000023871] was run?
The pEC50 was < 3.82.

With `Oc1ccc(CN=Nc2nc(-c3ccc(Cl)cc3)cc(C(F)(F)F)n2)cc1` [SMR000212812] as the compound, how does the pEC50 read?
Its pEC50 is 4.79.

With `O=C1C2C(=NC(=S)NC2c2ccc(Cl)cc2)NC(c2ccc(Cl)cc2)N1c1ccc(Cl)cc1` (configuration not stated) [SMR000155440] as the compound, how does the pEC50 read?
Its pEC50 is < 3.82.

With `Cc1cc(N=NCc2cccc(Br)c2)nc2ccccc12` [N-[(3-bromophenyl)methylideneamino]-4-methyl-2-quinolinamine] as the compound, how does the pEC50 read?
Its pEC50 is < 3.82.

`CC(C)C(N=Nc1ccccc1[N+](=O)[O-])c1ccccc1` (configuration not stated) [MLS000712651] was tested. Which pEC50 did it give?
Its pEC50 is 4.73.

With `Cn1cnnc1SCc1ccc(C(=O)N/N=C2\C(=O)N(Cc3ccc(Cl)cc3)c3ccccc32)cc1` [N-[(Z)-[1-[(4-chlorophenyl)methyl]-2-oxidanylidene-indol-3-ylidene]amino]-4-[(4-methyl-1,2,4-triazol-3-yl)sulfanylmethyl]benzamide] as the compound, how does the pEC50 read?
The pEC50 was 4.74.

`Cc1ccc(F)c(NC(=O)C(C#N)C(=O)c2ccc(C(C)(C)C)cc2)c1` (configuration not stated) [(Z)-2-(4-tert-butylphenyl)carbonyl-3-[(2-fluoranyl-5-methyl-phenyl)amino]-3-oxidanyl-prop-2-enenitrile] was tested. Which pEC50 did it give?
Its pEC50 is < 3.82.

How did the pEC50 turn out when `O=c1ccc2[n+]([O-])c3ccccc3n(O)c-2c1` [10-hydroxy-5-oxidophenazin-5-ium-2-one] was run?
The pEC50 was < 3.82.

With `CCOc1cccc(CN=Nc2ccc(S(=O)(=O)N(CC)CC)cn2)c1O` [6-[2-[(E)-(5-ethoxy-6-oxidanylidene-cyclohexa-2,4-dien-1-ylidene)methyl]hydrazinyl]-N,N-diethyl-pyridine-3-sulfonamide] as the compound, how does the pEC50 read?
Its pEC50 is < 3.82.

`C=CCn1c(-n2c(O)cc(Cc3ccccc3)c2O)nc2ccccc21` was tested. Which pEC50 did it give?
The pEC50 was < 3.82.

`Oc1ccc(Br)cc1CN=Nc1nc(N2CCCCC2)nc(N2CCOCC2)n1` [MLS000713264] was tested. Which pEC50 did it give?
Its pEC50 is 4.47.

`Oc1cc(N(CCc2ccccc2)C(=S)Nc2ccccc2)c(O)n1-c1ccc(Br)cc1` [1-[1-(4-bromophenyl)-2,5-bis(oxidanylidene)pyrrolidin-3-yl]-3-phenyl-1-(2-phenylethyl)thiourea] was tested. Which pEC50 did it give?
The pEC50 was 5.57.

`CCOC(=O)C1C(=N)Oc2ccc3ccccc3c2C1c1ccc(O)cc1` (configuration not stated) [3-amino-1-(4-hydroxyphenyl)-1H-benzo[f][1]benzopyran-2-carboxylic acid ethyl ester] was tested. Which pEC50 did it give?
The pEC50 was 4.94.

`C[N+](C)(C)c1ccc(CN=Nc2nc(Cl)c(C#N)c(Cl)c2Cl)cc1` [trimethyl-[4-[[(3,4,6-trichloro-5-cyanopyridin-2-yl)hydrazinylidene]methyl]phenyl]azanium;iodide] was tested. Which pEC50 did it give?
The pEC50 was < 3.82.

`CCCOc1ccc(C2C(C(=O)c3cc4ccccc4o3)C(=O)C(=O)N2c2cc(C)on2)cc1OC` (configuration not stated) [MLS001142810] was tested. Which pEC50 did it give?
Its pEC50 is < 3.82.

`O=C(O)COc1ccc(CN=Nc2nc(Nc3ccccc3)nc(N3CCCCC3)n2)cc1` [SMR000312685] was tested. Which pEC50 did it give?
Its pEC50 is < 3.82.

`O=C1N=c2ccccc2=C1NNC(=S)N1CCOCC1` [MLS000778251] was tested. Which pEC50 did it give?
Its pEC50 is < 3.82.

How did the pEC50 turn out when `CCOc1cc(CN=Nc2cc(C)nc(-n3nc(C)cc3C)n2)ccc1O` [4-{[2-(3,5-Dimethyl-pyrazol-1-yl)-6-methyl-pyrimidin-4-yl]-hydrazonomethyl}-2-ethoxy-phenol] was run?
Its pEC50 is < 3.82.

`Oc1nc(Nc2ccccn2)sc1Cc1ccc(Cl)cc1` [SMR000288952] was tested. Which pEC50 did it give?
Its pEC50 is < 3.82.

With `O=C1NC(=O)N(Cc2ccccc2)C(=O)C1=CNNC(=O)c1ccccc1` [N'-[(E)-[2,4,6-tris(oxidanylidene)-1-(phenylmethyl)-1,3-diazinan-5-ylidene]methyl]benzohydrazide] as the compound, how does the pEC50 read?
The pEC50 was < 3.82.

`c1csc(CN=Nc2ncnc3sc4c(c23)CCC4)c1` [MLS000571423] was tested. Which pEC50 did it give?
The pEC50 was < 3.82.

With `CCOC(=O)c1ccc(NC(=O)Cc2sc(N=NCc3c[nH]c4ccccc34)nc2O)cc1` [MLS000722052] as the compound, how does the pEC50 read?
The pEC50 was < 3.82.

With `Cc1ccc(-n2c(=O)c3[nH][nH]n(CC(=O)N4N=C(c5cccc6ccccc56)CC4c4ccccc4)c=3c2=O)cc1` (configuration not stated) [MLS000546672] as the compound, how does the pEC50 read?
Its pEC50 is 4.45.

`Cc1cc(Br)c(OCc2ccc(C(=O)NN=C3CC4CCC=C34)cc2)c(Br)c1` (configuration not stated) [MLS000335385] was tested. Which pEC50 did it give?
Its pEC50 is < 3.82.

With `O=C(N/N=C/C1C=C([N+](=O)[O-])C=CC1=O)c1cccc(NC(=O)c2cccc(Cl)c2)c1` (configuration not stated) as the compound, how does the pEC50 read?
Its pEC50 is < 3.82.

`Cc1cc(N=NCc2ccc(O)c(C)c2O)nc(-c2ccccc2O)n1` [(4E)-3-hydroxy-2-methyl-4-[[[(2Z)-6-methyl-2-(6-oxo-1-cyclohexa-2,4-dienylidene)-1H-pyrimidin-4-yl]hydrazo]methylidene]-1-cyclohexa-2,5-dienone] was tested. Which pEC50 did it give?
The pEC50 was < 3.82.

How did the pEC50 turn out when `CN1c2ccsc2C(NNc2ccccc2)=CS1(=O)=O` [N-[(1-methyl-2,2-dioxo-4-thieno[3,2-c]thiazinylidene)amino]aniline] was run?
The pEC50 was 5.39.

How did the pEC50 turn out when `CC(=N)C(C#N)C(=O)CSc1nc2scc(-c3ccccc3)c2c(=O)n1C` (configuration not stated) [(E)-3-azanyl-2-[2-(3-methyl-4-oxidanylidene-5-phenyl-thieno[2,3-d]pyrimidin-2-yl)sulfanylethanoyl]but-2-enenitrile] was run?
The pEC50 was < 3.82.
